Measured values as given in a melting point compilation (Tetko et al.; mined from patent text by program, amines drawn as free bases though some values may be those of a salt).

melting point [°C] | Structure (SMILES)
80 to 82 | CC(C)n1cc(C2(c3ccc(F)c(Br)c3)N=C(N)N(C)C2=O)cn1 (configuration not stated)
198 | O=C(Nc1ccc(Br)cc1)Oc1ccc2c(c1)CCCN2
103 to 105 | COC(=O)Cc1ccc2c(c1)CCc1ccccc1S2
144 to 146 | COC(=O)CCC(=O)Nc1cccc(O)c1
253 to 255 | CC(=O)Nc1cc(O)ccc1-c1cc(=O)c2ccccc2o1
179 | CCCN1CCn2c(=S)[nH]c3cccc(c32)C1C (configuration not stated)
120 | CC1(C)C(C(=O)O)C1(C)C
178 to 180 | COC(=O)c1ccc2c(c1)S(=O)(=O)NCN2C1CC1
110 to 112 | Cc1nn(-c2cccc(C(F)(F)F)c2)cc1C(=O)N(CC(=O)O)c1ccc(OCC(C)(C)C)c(C#N)c1
56 to 59 | CC(=O)Oc1nsnc1-c1c(Cl)cccc1Cl
212 | CCCCc1cn(-c2c(Cl)cccc2Cl)c(=O)n1Cc1ccc(-c2ccccc2-c2nnn[nH]2)nc1
130 | CC(=O)ON=C(N)c1cccc(C(=O)N2CCN(C(=O)[C@@H]3CCCN3S(=O)(=O)c3ccc(Cl)c(COc4cccc5c(C)cc(C)nc45)c3Cl)CC2)c1
245 | COC(=O)C1=C(C)Nc2ccnc(OC(C)C)c2C1c1c(Cl)cccc1Cl (configuration not stated)
109 to 110 | O=C(O)Cc1ccc(CO[N+](=O)[O-])cc1
267 to 268 | O=C(NC1=NCCS1)c1cnc2c(C(F)(F)F)cccc2c1O
159 to 160 | COc1ccc(-c2cc(F)c(F)cc2-c2ccc(S(C)(=O)=O)cc2)cc1F
166 to 167 | CC(=O)OCC1OC(n2ccc3c(Br)cccc32)C(OC(C)=O)C(OC(C)=O)C1OC(C)=O (configuration not stated)
138 to 139 | CCCCCCCCc1nc2c(N)nc3ccccc3c2n1CCOCC#Cc1ccccc1
146 to 148 | CC(=O)Oc1ccc(Cl)cc1C(=O)O
203 to 205 | CSc1ccc(-c2nc(SC)c(C#N)c(=O)n2-c2ccc(C)cc2C)cc1
236 | Cc1cc(-c2cc(C(F)F)n3ncc(-c4ccncc4)c3n2)ccc1C(F)(F)F

melting point [°C] | Structure (SMILES)
152 to 154 | CS(=O)(=O)c1ccc(-c2cc(C(=O)CCCO[N+](=O)[O-])nn2-c2ccc(C(F)(F)F)cc2)cc1
155 to 156 | O=C(NCc1ccccn1)Nc1cc(N2CC(COc3ccccc3)OC2=O)ccn1 (configuration not stated)
108 to 110 | O=C(NOCC(O)CN1CCCCC1)NC1CCCCC1 (configuration not stated)
233 to 234 | CCOC(=O)c1cn(-c2nc(F)cs2)c2nc(N3CCC(NC(=O)OC(C)(C)C)C3)ccc2c1=O (configuration not stated)
208 to 210 | NC1=CC(=O)C2CCCCC2C1 (configuration not stated)
143 | CCC(C(=O)OC)c1cccc(C(=O)c2cc3cc(C(=O)OC)sc3s2)c1 (configuration not stated)
243 | CCOC(=O)c1ncn2c(C(F)(F)F)cc(-c3ccc(C(F)(F)F)cc3)nc12
64 to 65 | C=CCON=C(CC)C1=C(O)CC(c2c(C)c(C)c3c(c2C)CC(C)(CC)C3)CC1=O (configuration not stated)
152 to 157 | COC(=O)C(Oc1ccc(NC(C)=O)cc1)c1ccc(Oc2ccc(Cl)cc2)cc1 (configuration not stated)
211 to 212 | Oc1ccc2c(c1)Cc1c-2cc2ccc(O)cc2c1C=C(F)F
156 to 157 | Cc1ccc(C(=O)O)c(OC(=O)C=Cc2ccccc2)c1
168 to 184 | CS(=O)(=O)c1ccc(-c2sc(-c3ccccc3Cl)nc2-c2ccc(Br)cc2)cc1
120 to 126 | COc1cc2c(cc1Nc1ncc(Cl)c(N[C@H]3[C@@H](C(N)=O)[C@@H]4C=C[C@H]3C4)n1)CCN(C[C@H](O)C(F)(F)F)CC2
75 to 77 | CC1(c2ccccc2)OC(C=Cc2ccsc2)=CC1=O (configuration not stated)
164 to 165 | Cc1nc2cccc(CCN3CCC(c4noc5cc(F)ccc45)CC3)c2c(=O)[nH]1
261 to 263 | CCC(C)(C)Nc1c(NCc2ccc(C)c(Cl)c2)c(=O)c1=O
58 to 59 | c1cc2c3c(c1)NCC3CCC2 (configuration not stated)
124 to 126 | CN(C(=S)Nc1ccc(Cl)cc1Cl)c1cccc(C(=CCCCC(=O)O)c2cccnc2)c1
167 to 169 | CCOC(=O)COc1cc(OC)cc2c1c1c(n2Cc2ccccc2)CCCC1C(N)=O (configuration not stated)
142 to 145 | Cc1ccc(S(=O)(=O)OCCc2cccc3c(S(=O)(=O)c4ccccc4)c[nH]c23)cc1
68.5 to 71.5 | CCCCCCc1ccc(C(=O)N2CCOCC2)cc1[N+](=O)[O-]

melting point [°C] | Structure (SMILES)
106 to 107 | CCCCc1oc2ccccc2c1C(O)c1cc(I)c(OCCN(CC)CC)c(I)c1 (configuration not stated)
158 to 161 | Cc1nsc(NC(=O)C(C)c2ccc3oc(-c4cccc(Cl)c4Cl)nc3c2)c1Cl (configuration not stated)
155 to 156 | O=C(O)CCN1C(=O)CSC1=S
310 to 312 | O=C1OCCC1N1C(=O)c2cccc3cccc(c23)C1=O (configuration not stated)
167 to 168 | CC1(C)CCC(C)(C)c2cc(CC#Cc3ccc(C(=O)O)cc3)ccc21
201 | Cc1cc(-c2cnn3c(C(F)(F)F)cc(-c4ccc(C(F)(F)F)c(OCC(F)(F)F)c4)nc23)ccn1
130 to 132 | C=CCOc1ccc(C2=NNC(=O)CC2)cc1
244 | COc1cccc(-n2nc(C)c3ccc([N+](=O)[O-])cc32)c1C#N
131 to 132 | CC(C)=CCc1c(O)ccc(C(=O)C=Cc2ccccc2)c1O
130 to 132 | Cc1c(C)c2c(c(C)c1N)C(c1ccc(C(C)C)cc1)C(C)(C)O2 (configuration not stated)
125 to 127 | CCCCN(Cc1ccc(-c2ccccc2-c2nnnn2C(c2ccccc2)(c2ccccc2)c2ccccc2)cc1)c1cc(C)nc(C)n1
78 to 81 | CC1(C)C2CC[C@]1(C)C(=O)C(C(=O)Nc1ccc(C(F)(F)F)cc1)C2=O (some centres not stated)
90 to 100 | Cc1cc(CN(Cc2ccsc2)c2sc(-c3ccc(C(F)(F)F)cc3)nc2C)cc(C)c1OC(C)(C)C(=O)O
49 to 50 | COc1cccc2c1oc1ccccc12
198 to 200 | CC(C)Oc1ccc(-c2nn(C(C)c3oc4ccccc4c(=O)c3-c3cccc(F)c3)c3ncnc(N)c23)cc1Cl (configuration not stated)
78 to 80 | CCOCc1cc2cc(Br)ccc2oc1=Nc1ccccc1
157 to 161 | CC(C)(C)OC(=O)Nc1cc(N2CCC(OC3CCCCO3)CC2)c(-c2ccc(F)cc2)cc1N (racemic)
192 to 195 | NS(=O)(=O)c1cc2c3c(ccc2cc1[N+](=O)[O-])N(C(=O)C(F)(F)F)CC3CCl (configuration not stated)
137 to 138 | CCOC(=O)c1sc(Oc2ccc3c(c2)OCC3)c2c1CCc1cnn(C)c1-2

Structure (SMILES) | melting point [°C]
CN1CC(C)(C)Oc2c(C(=O)NC3CN4CCC3CC4)cccc21 (configuration not stated) | 114 to 116
CC(=O)c1ccc(C)c(N=C2NCCN2)c1 | 160 to 162
COc1cc(C(=O)Nc2c(Cl)cc3c(Br)n[nH]c3c2C(=O)NC(C)C)n(-c2ncccc2Cl)n1 | 217 to 218
CCOC(=O)N1CCN(C(=O)OC2c3ccccc3C(=O)N2c2ccc(Cl)cn2)CC1 (configuration not stated) | 160
CN1CC=C(c2cn(-c3cccnc3)c3ccc([N+](=O)[O-])cc23)CC1 | 175 to 177
COc1ccc2[nH]cc(C3CCN(C(=O)NCC4CCC(c5ccccc5)(N(C)C)CC4)CC3)c2c1 (configuration not stated) | 98 to 100
